According to ChEMBL document CHEMBL5729293, “Inhibitors of KEAP1-Nrf2 protein-protein interaction” (2022):

Assay: Fluorescence Based Assay: The details of the KEAP1 KELCH ThermoFluor® Assay Construct are as follows: Kelch domain of human KEAP 1 (321-624 aa) was used in the assay. The protein was expressed in E. coli with 6His tag that was cleaved prior to receipt for use.ThermoFluor® experiments were carried out using instruments owned by Janssen Research and Discovery, L.L.C. through its acquisition of 3-Dimensional Pharmaceuticals, Inc. 1,8-ANS (Invitrogen) was used as a fluorescent dye. Protein (KEAP Kelch) and compound solutions were dispensed into black 384-well polypropylene PCR microplates (Abgene) and overlayed with silicone oil (1 μL, Fluka, type DC 200) to prevent evaporation.Reference wells contained KEAP Kelch without compounds, and the assay conditions were as follows: 1.1 μM (0.037mg/mL) KEAP Kelch, 80 μM 1,8-ANS, 25 mM PIPES, pH 7.0, 100 mM NaCl, 0.002% Tween-20.

Structure (SMILES)	Kd [nM]
Cc1ccc([C@@H](c2ccn3c(C(F)(F)F)nnc3c2C)C(C)(C)C(=O)O)cc1CN1CC2(CC2)Oc2nc(OCCN3CCCC3)c(C)cc2S1(=O)=O	< 1
Cc1ccc([C@@H](CC(=O)O)c2ccn3c(C(F)(F)F)nnc3c2C)cc1CN1C[C@@H]2CCCCN2c2ncccc2S1(=O)=O	< 1
Cc1ccc([C@@H](c2ccn3c(C(F)F)nnc3c2C)C(C)(C)C(=O)O)cc1CN1CC2(CC2)Oc2nc(OCCN3CCCCC3)c(C)cc2S1(=O)=O	< 1
CCn1nnc2c(C)c(C(CC(=O)O)c3ccc(C)c(CN4C[C@H]5CCCN5c5ncccc5S4(=O)=O)n3)ccc21 (stereo partly drawn)	< 1
Cc1ccc([C@@H](CC(=O)O)c2ccn3c(C(F)(F)F)nnc3c2C)cc1CN1C[C@H]2CCCN2c2ccccc2S1(=O)=O	< 1
Cc1ccc([C@H](c2ccn3c(C(F)(F)F)nnc3c2C)C(C)(C)C(=O)O)cc1CN1CC2(CCOCC2)Oc2nc(OCCN3CCC(F)(F)CC3)ccc2S1(=O)=O	< 1
Cc1ccc(C(CC(=O)O)c2ccn3c(C(F)(F)F)nnc3c2C)cc1CN1CC(C)(C)Oc2ncccc2S1(=O)=O (stereo not drawn)	< 1
Cc1ccc([C@@H](CC(=O)O)c2ccn3c(C(F)(F)F)nnc3c2C)cc1CN1CC2(COC2)Oc2ccccc2S1(=O)=O	< 1
Cc1ccc([C@@H](c2ccn3c(C(F)(F)F)nnc3c2C)C(C)(C)C(=O)O)cc1CN1CC2(CC2)Oc2nc(OCCN3CCCCC3)c(C)cc2S1(=O)=O	< 1
Cc1ccc([C@H](CC(=O)O)c2ccn3c(C(F)(F)F)nnc3c2C)cc1CN1C[C@H]2CCCCN2c2ncccc2S1(=O)=O	< 1
Cc1ccc([C@H](c2ccn3c(C(F)(F)F)nnc3c2C)C(C)(C)C(=O)O)cc1CN1CC2(CCOCC2)Oc2nc(NCCN3CCNCC3)c(C)cc2S1(=O)=O	< 1
Cc1ccc([C@@H](c2ccn3c(C(F)F)nnc3c2C)C(C)(C)C(=O)O)cc1CN1CC2(CCOCC2)Oc2nc(OCCN3CCCC3)c(C)cc2S1(=O)=O	< 1
Cc1ccc(C(CC(=O)O)c2ccn3c(C(F)(F)F)nnc3c2C)cc1CN1C[C@@H]2CCCCN2c2ncccc2S1(=O)=O (stereo partly drawn)	< 1
Cc1ccc([C@@H](c2ccn3c(C(F)(F)F)nnc3c2C)C(C)(C)C(=O)O)cc1CN1CC2(CC2)Oc2nc(OCCN3CCCCC3)ccc2S1(=O)=O	< 1
CCn1nnc2c(C)c([C@H](CC(=O)O)c3ccc(C)c(CN4C[C@H]5CCCCN5c5ncccc5S4(=O)=O)n3)ccc21	< 1
Cc1ccc([C@H](c2ccn3c(C(F)(F)F)nnc3c2C)C(C)(C)C(=O)O)cc1CN1CC2(CCOCC2)Oc2nc(NC(C)CN3CCCCC3)c(C)cc2S1(=O)=O (stereo partly drawn)	< 1
Cc1cnc2c(c1)S(=O)(=O)N(Cc1cc([C@@H](c3ccn4c(C(F)F)nnc4c3C)C(C)(C)C(=O)O)ncc1C)CC1(CC1)O2	< 1
Cc1ccc([C@H](CC(=O)O)c2ccn3c(C(F)(F)F)nnc3c2C)cc1CN1CC(C)(C)Oc2ncccc2S1(=O)=O	< 1
Cc1ccc([C@H](CC(=O)O)c2ccn3c(C(F)(F)F)nnc3c2C)cc1CN1CC2CCCCN2c2ncc(C#N)cc2S1(=O)=O (stereo partly drawn)	< 1
CCn1nnc2c(C)c([C@H](CC(=O)O)c3ccc(C)c(CN4C[C@H]5CCCN5c5ncccc5S4(=O)=O)n3)ccc21	< 1
Cc1ccc([C@H](c2ccn3c(C(F)(F)F)nnc3c2)C(C)(C)C(=O)O)cc1CN1CC2(CCOCC2)Oc2ncccc2S1(=O)=O	< 1

Structure (SMILES)	Kd [nM]
Cc1ccc([C@@H](c2ccn3c(C(F)(F)F)nnc3c2C)C(C)(C)C(=O)O)cc1CN1CC2(CCOCC2)Oc2nc(CCC(=O)NCCOCCN)ccc2S1(=O)=O	> 10000
CCn1nnc2c(C)c([C@H](CC(=O)O)c3ccc(C)c(CN4C[C@@H]5CCCCN5c5ncccc5S4(=O)=O)n3)ccc21	< 1
Cc1ccc(C(CC(=O)O)c2ccn3c(C(F)(F)F)nnc3c2C)cc1CN1C[C@H]2CCCCN2c2ncccc2S1(=O)=O (stereo partly drawn)	< 1
Cc1ccc([C@H](c2ccn3c(C(F)(F)F)nnc3c2C)C(C)(C)C(=O)O)cc1CN1CC2(CCNCC2)Oc2ncccc2S1(=O)=O	> 10000
Cc1ccc([C@H](CC(=O)O)c2ccn3c(C(F)(F)F)nnc3c2C)cc1CN1C[C@H]2CCCN2c2ccccc2S1(=O)=O	< 1
Cc1ccc([C@H](c2ccn3c(C(F)(F)F)nnc3c2C)C(C)(C)C(=O)O)cc1CN1CC2(CCOCC2)Oc2nc(N[C@H](C)CN3CCOCC3)c(C)cc2S1(=O)=O	< 1
Cc1ccc([C@@H](CC(=O)O)c2ccn3c(C(F)(F)F)nnc3c2C)cc1CN1C[C@H]2CCCCN2c2ncccc2S1(=O)=O	< 1
CCc1nnc2c(C)c([C@H](CC(=O)O)c3ccc(C)c(CN4C[C@H]5CCCN5c5ccccc5S4(=O)=O)c3)ccn12	< 1
Cc1cnc2c(c1)S(=O)(=O)N(Cc1cc([C@@H](c3ccn4c(C(F)(F)F)nnc4c3C)C(C)(C)C(=O)O)ccc1C)CC1(CNC1)O2	< 1
Cc1ccc([C@H](c2ccn3c(C(F)(F)F)nnc3c2C)C(C)(C)C(=O)O)cc1CN1CC2(CCOCC2)Oc2nc(OCCC3CCNCC3)c(C)cc2S1(=O)=O	< 1
Cc1ccc([C@@H](c2ccn3c(C(F)(F)F)nnc3c2C)C(C)(C)C(=O)O)nc1CN1CC2(CCOCC2)Oc2nc(OCCN3CCOCC3)ccc2S1(=O)=O	< 1
CCn1nnc2c(C)c([C@@H](CC(=O)O)c3ccc(C)c(CN4C[C@H]5CCCCN5c5ncccc5S4(=O)=O)n3)ccc21	< 1
COC1CCN(CCOc2nc3c(cc2C)S(=O)(=O)N(Cc2cc([C@@H](c4ccn5c(C(F)(F)F)nnc5c4C)C(C)(C)C(=O)O)ccc2C)CC2(CC2)O3)CC1	< 1
Cc1ccc([C@H](c2ccn3c(C(F)F)nnc3c2C)C(C)(C)C(=O)O)nc1CN1CC2(CC2)Oc2nc(OCCN3CCCCC3)c(C)cc2S1(=O)=O	< 1
Cc1ccc([C@@H](c2ccn3c(C(F)F)nnc3c2C)C(C)(C)C(=O)O)cc1CN1CC2(CCOCC2)Oc2nc(OCCN3CCCCC3)c(C)cc2S1(=O)=O	< 1
Cc1cnc2c(c1)S(=O)(=O)N(Cc1nc([C@@H](c3ccn4c(C(F)F)nnc4c3C)C(C)(C)C(=O)O)ccc1C)CC1(CC1)O2	< 1
CCn1nnc2c(C)c(C(CC(=O)O)c3ccc(C)c(CN4C[C@H]5CCCCN5c5ncccc5S4(=O)=O)n3)ccc21 (stereo partly drawn)	< 1
Cc1ccc([C@H](CC(=O)O)c2ccn3c(C(F)(F)F)nnc3c2C)cc1CN1C[C@H]2CCCCN2c2ccccc2S1(=O)=O	< 1
Cc1ccc([C@H](c2ccn3c(C(F)(F)F)nnc3c2C)C(C)(C)C(=O)O)cc1CN1CC2(CCOCC2)Oc2nc(N[C@@H](C)CN3CCOCC3)c(C)cc2S1(=O)=O	< 1
Cc1cnc2c(c1)S(=O)(=O)N(Cc1cc([C@H](c3cc4cc(C)nnc4n3C)C(C)(C)C(=O)O)ccc1C)CC1(CC1)O2	< 1
Cc1cnc2c(c1)S(=O)(=O)N(Cc1cc([C@H](c3ccn4c(C(F)(F)F)nnc4c3)C(C)(C)C(=O)O)ccc1C)CC1(CC1)O2	< 1

Structure (SMILES)	Kd [nM]
Cc1ccc([C@H](c2ccn3c(C(F)(F)F)nnc3c2C)C(C)(C)C(=O)O)cc1CN1CC2(CCOCC2)Oc2nc(NCCN3CCOCC3)c(C)cc2S1(=O)=O	< 1
CCn1nnc2c(C)c(C(CC(=O)O)c3ccc(C)c(CN4C[C@@H]5CCCCN5c5ncccc5S4(=O)=O)n3)ccc21 (stereo partly drawn)	< 1
CCn1nnc2c(C)c([C@@H](CC(=O)O)c3ccc(C)c(CN4C[C@@H]5CCCCN5c5ncccc5S4(=O)=O)n3)ccc21	< 1
Cc1ccc([C@@H](c2ccn3c(C(F)(F)F)nnc3c2C)C(C)(C)C(=O)O)cc1CN1CC2(CCOCC2)Oc2nc(OCCN3CCCC3)c(C)cc2S1(=O)=O	< 1
Cc1cnc2c(c1)S(=O)(=O)N(Cc1cc([C@@H](c3ccn4c(C(F)(F)F)nnc4c3C)C(C)(C)C(=O)O)ccc1C)CC1(CC1)O2	< 1
Cc1ccc([C@H](CC(=O)O)c2ccn3c(C(F)(F)F)nnc3c2C)cc1CN1C[C@@H]2CCCCN2c2ncccc2S1(=O)=O	< 1
Cc1ccc([C@H](c2ccn3c(C(F)(F)F)nnc3c2C)C(C)(C)C(=O)O)cc1CN1CC2(CCOCC2)Oc2nc(N[C@@H](C)CN3CCCC3)c(C)cc2S1(=O)=O	< 1
Cc1ccc(C(CC(=O)O)c2ccn3c(C(F)(F)F)nnc3c2C)cc1CN1CC2(COC2)Oc2ccccc2S1(=O)=O (stereo not drawn)	< 1
Cc1ccc([C@@H](c2ccn3c(C(F)(F)F)nnc3c2C)C(C)(C)C(=O)O)cc1CN1CC2(CC2)Oc2ncccc2S1(=O)=O	< 1
Cc1ccc(C(c2ccc3c(nnn3CC3CC3)c2C)C(C)(C)C(=O)O)nc1CN1CC2(CCOCC2)Oc2nc(OCCN3CCOCC3)ccc2S1(=O)=O (stereo not drawn)	< 1
Cc1ccc([C@@H](c2ccc3c(nnn3CC3CC3)c2C)C(C)(C)C(=O)O)nc1CN1CC2(CCOCC2)Oc2nc(OCCN3CCOCC3)ccc2S1(=O)=O	< 1
Cc1ccc([C@H](CC(=O)O)c2ccn3c(C(F)(F)F)nnc3c2C)cc1CN1C[C@@H]2CCN2c2ncccc2S1(=O)=O	< 1
Cc1ccc([C@@H](c2ccn3c(C(F)F)nnc3c2C)C(C)(C)C(=O)O)nc1CN1CC2(CCOCC2)Oc2nc(OCCN3CCCCC3)c(C)cc2S1(=O)=O	< 1
Cc1ccc([C@H](CC(=O)O)c2ccn3c(C(F)(F)F)nnc3c2C)cc1CN1CC2(CC2)Oc2ncc(F)cc2S1(=O)=O	< 1
Cc1ccc([C@@H](c2ccn3c(C(F)F)nnc3c2C)C(C)(C)C(=O)O)cc1CN1CC2(CC2)Oc2nc(OCCN3CCCC3)c(C)cc2S1(=O)=O	< 1
CCc1nnc2c(C)c([C@@H](CC(=O)O)c3ccc(C)c(CN4C[C@H]5CCCN5c5ncccc5S4(=O)=O)c3)ccn12	< 1
CCn1nnc2c(C)c([C@@H](CC(=O)O)c3ccc(C)c(CN4C[C@H]5CCCN5c5ncccc5S4(=O)=O)n3)ccc21	< 1
Cc1ccc([C@H](c2ccn3c(C(F)F)nnc3c2C)C(C)(C)C(=O)O)nc1CN1CC2(CC2)Oc2nc(OCCN3CCCC3)c(C)cc2S1(=O)=O	< 1
CCc1nnc2c(C)c(C(CC(=O)O)c3ccc(C)c(CN4C[C@H]5CCCN5c5ncccc5S4(=O)=O)c3)ccn12 (stereo partly drawn)	< 1
Cc1ccc([C@H](c2ccn3c(C(F)(F)F)nnc3c2C)C(C)(C)C(=O)O)cc1CN1CC2(CCOCC2)Oc2nc(OCCN3CCNCC3)ccc2S1(=O)=O	< 1
Cc1ccc([C@@H](c2ccn3c(C(F)(F)F)nnc3c2C)C(C)(C)C(=O)O)cc1CN1CC2(CNC2)Oc2ncccc2S1(=O)=O	< 1
